Measured values: patent US20260207388A1, “WOUND DRESSING” (ConvaTec Limited, priority 2023, published 2026)

Experiments:
Settings in all cases: EDTA at concentrations of 0.1-40 wt. % by volume
[1] = test system: Pseudomonas aeruginosa
[2] = test system: vancomycin resistant Enterococcus (VRE)
[3] = test system: methicillin resistant Staphylococcus aureus (MRSA)
[4] = test system: Serratia marcescens

Measured: killing of microorganisms in the planktonic and biofilm state

O=C(O)CN(CCN(CC(=O)O)CC(=O)O)CC(=O)O [EDTA, ethylenediaminetetra-acetic acid]
effectively killed: all assays above
